# Assay results from US20250031689A1, “CRYOPRESERVATION COMPOSITIONS AND METHODS” (priority 2023, published 2025).
# Experiments:
# [1] = system: HEK293 cells; test: Freeze-thaw (-80° C.) cryoprotection of HEK293 cells, post-thaw attachment/viability; type: cell-based
# Protocol: For the studies detailed below, the following procedures were used for preparation of cell cultures prior to cryopreservation: Both HEK-293 and HCT-115 cells were cultured in DMEM medium supplemented with 10% calf serum or 10% fetal calf serum. Two or three days prior to initiating a cryopreservation study, cells were seeded onto 100 mm tissue culture treated dishes in the above described culture medium and placed into a humidified, 5% CO2 incubator and allowed to propagate for 2 or 3 days. Preparation of growing cultures for cryostorage was performed as follows: Medium from 100 mm dishes containing growing cultures prepared as described above was aspirated and replaced with saline containing 0.5 mM EDTA and allowed to incubate for 2-3 minutes. This material was also aspirated and replaced with saline containing 0.25% trypsin and 0.25 mM EDTA. After incubating this second mixture for an additional 3-5 minutes and observing partial detachment of cells from dishes, cells were removed by using inertial force against the dish or by using a stream of saline or base culture medium to dislodge and collect cells from the dish. Cells harvested in this manner were separated by centrifugation (100 g×3 min), resuspended in the desired cryostorage solution, dispensed into polypropylene vials, positioned in microtube racks that were placed into a −80° C. freezer. Cells were kept frozen for 24-168 hours, at which time cryovials were removed to wet ice and cells thawed and plated into appropriate tissue culture vessels, typically 6 or 12 well plates. Cells were visualized with the aid of a Nikon TE300 microscope with an attached camera to allow documentation.
# As described above, we wished to test the ability of amino acid species to serve as primary cryoprotectants per the definition provided, i.e. at concentrations at which they provided osmotic pressure sufficient to induce cell dehydration. For this purpose we prepared solutions of several amino acids, including alanine, glycine, proline, glutamate, histidine, aspartate, leucine, lysine, phenylalanine, threonine, arginine, and serine. These were standardized to 1M and adjusted to pH 7.1-pH 7.3, where possible or to maximal concentrations when 1M was above the solubility such as histidine and leucine. These solutions were used by dilution in water to test for their ability to serve as a cryoprotectant or diluted to the desired target concentration in a variety of base media including saline, and the two growth mediums described above (DMEM and OptiMeM) in the studies with three different mammalian cell lines described below described below.
# FIG. 1. […] To test this capacity against a well-established cryoprotectant from those described above, HEK293 cultures were prepared as above in one of three base cryostorage mediums as noted below each pair of photographs depicted in panel A: (a) OptiMEM culture medium (ThermoFisher), a serum free growth medium, (b) DMEM culture medium containing 10% serum, or (c) 0.3M glutamate pH 7.2. One sample was prepared in each storage medium as described (labels on the bottom of each vertical pair of photographs), and an additional sample for each was prepared with 7.5% DMSO. 23 hours after plating thawed cells, cultures were visualized with 4× (upper) and 20× objectives (lower). […] The images were also analyzed using NIH Image to count cell numbers, depicted in panel B.
# FIG. 2. […] HEK293 cells were prepared as described above in OptiMEM medium and apportioned into 4 samples containing 0 mM, 100 mM, 200 mM, or 300 mM glutamate (labels below photograph). After completing a freeze-thaw cycle, each sample was plated and visualized 23 hours after plating.
# [2] = system: ovine pre-adipocyte cells; test: Freeze-thaw cryoprotection of cells suspended in saline, cell yield by ImageJ (FIG. 4); type: cell-based
# [3] = system: cells; details: NaCl at concentrations where glutamate acts as a CPA
# Protocol: We developed a workflow that tested cryoprotection of cells suspended in physiological saline (150 mM NaCl), overcoming the need to resuspend centrifuged cells directly in a final cryoprotection buffer. […] Thus, in these studies, trypsinized cells were centrifuged as described above, but resuspended in saline prior to diluting into a test solution. The photographs in FIG. 4A depict representative fields at 4× magnification of 6-well plates seeded with ovine pre-adipocyte cells, frozen in solutions comprised of agents and concentrations indicated to the left of each row. The cells in each field were enumerated by using ImageJ (NIH) to carryout noise reduction and thresholding before enumerating cell particles (FIG. 4B). It should be noted that dilution of the initial saline sample contributed 0.105 M NaCl concentration in addition to the agents indicated to the left. To provide a positive sample, we also tested DMSO at three concentrations (1%, 3%, and 10%). […] Therefore, we also tested binary mixtures as well as a ternary and a quaternary mixture.
# We ascertained if such synergy might also exist with other well established cryoprotectants such as betaine or trehalose. […]
# [4] = system: HCT 115 cells; test: Freeze-thaw cryoprotection of HCT 115 cells, crystal violet stain density (cell yield); type: cell-based; details: glutamate in OptiMEM, 96 hours growth after thaw
# Protocol: FIG. 3. Cryoprotectant activity of glutamate requires concentrations greater than 50 mM. The dose response relationship of glutamate and its ability to impart cryoprotective activity to OptiMeM prompted the question of our findings being extensible to other cell types such as HCT 115 cells (FIG. 2). Cells were prepared as described above in OptiMEM medium containing either no additions, 7.5% DMSO, 50 mM glutamate, 150 mM glutamate, 250 mM glutamate, or 350 mM glutamate. Thawed cells were plated, washed at 24 hours to remove debris, and allowed to grow for a total of 96 hours, at which time they were fixed with 10% formol (15 minutes). Fixed cultures were stained with 0.2% crystal violet for 2 hours, destained in 4 changes of distilled water, dried and scanned on an Epson scanner at 1200 dpi (panel A). The density of stain from each culture, corresponding to cell yield, was quantified using ImageJ (NIH). The density of each culture was plotted in a bar graph and is shown in panel B. The stained 6-well plate containing each culture is shown in panel A, with insets showing a photograph from representative cultures visualized with a 4× objective after staining. The order of the samples in the plate shown in panel A is (left to right, top to bottom): media alone, media+7.5% DMSO, media+50 mM glutamate, media+150 mM glutamate, media+250 mM glutamate, media+350 mM glutamate. […]
# [5] = system: Cygnus monkey spermatozoa; details: at 5-10 mM; cited from earlier work
# [6] = system: mouse oocytes; details: 2M proline, in the presence of DMSO and ethylene glycol; cited from earlier work
# [7] = system: RBCs; details: 1.5M proline, only in the presence of trehalose; cited from earlier work
structure (smiles),measurement,setting,value
"C[S+](C)[O-] [DMSO, Dimethylsulfoxide]",attachment of cells at 23 hours after plating thawed cells,[1]; 7.5% DMSO in OptiMEM or DMEM containing 10% serum,do attach
same,cryoprotection as measured by cell yield,"[2]; DMSO at 1%, saline, -80° C.",cryoprotective activity was apparent
same,cryoprotection as measured by cell yield,"[2]; DMSO at 3% and 10%, saline, -80° C.",capable cryoprotective agent
[Cl-].[Na+] [NaCl],cryoprotection by increased ionic strength,[3],does not provide any significant cryoprotection
N[C@@H](CCC(=O)O)C(=O)O [glutamate],post-thaw viability 23 hours after plating,[1]; 100 mM glutamate in OptiMEM,some extended post-thaw viability
same,post-thaw viability and attachment 23 hours after plating,[1]; 200 mM and 300 mM glutamate in OptiMEM,increased viability
same,entry into the growth cycle compared to cells in medium alone,[1]; 0.3M glutamate in OptiMEM,improved entry into the growth cycle
same,attachment of cells at 23 hours after plating thawed cells,[1]; 0.3M glutamate pH 7.2 as sole cryoprotectant,attachment at least to the level of either medium containing DMSO
same,post-thaw viability in initial survey of amino acids,"[1]; HEK293 cells, compared among several amino acids",highest degree of post-thaw viability
same,concentration required for cryoprotectant activity,[4],greater than 50 mM
same,cryoprotection as measured by cell yield,"[2]; glutamate as a sole agent, comparable to 3% and 10% DMSO",significant cryoprotection
NC(=O)CC[C@H](N)C(=O)O [glutamine],increase in post-thaw recovery above that obtained with the control,[5],approximately 20%
NCC(=O)O [glycine],increase in post-thaw recovery above that obtained with the control,[5],approximately 20%
O=C(O)[C@@H]1CCCN1 [proline],increase in post-thaw recovery above that obtained with the control,[5],approximately 20%
same,increase in implantation rate,[6],6-10%
same,hemolysis of frozen cells,[7],able to reduce hemolysis
